Experimental data as given in patent US12637473B2, “MDM2 protein degraders” (THE REGENTS OF THE UNIVERSITY OF MICHIGAN, priority 2016, dated 2026).

Legend:
RS4; 11 cell line = test: CellTiter-Glo Luminescent Cell Viability Assay, cell growth inhibition; type: cell-based; conditions: Homo sapiens, 96 h, 4 days
Procedure: (§1) Cell growth inhibitory activity of representative MDM2 protein degraders was determined using CellTiter-Glo® Luminescent Cell Viability Assay. Cells were seeded in 384-well white opaque cell culture plates at a density of 2,000 cells/well with serially diluted compounds and incubated at 37° C. in an atmosphere of 95% air and 5% CO2 for 4 days. Cell viability was determined using the CellTiter-Glo® Luminescent Cell Viability Assay Kit (Promega, Madison, WI) according to the manufacture's instruction. Briefly, a volume of CellTiter-Glo® Reagent equal to the volume of cell culture medium was added to each well, and then the plates were incubated at room temperature for 10-20 minutes. The luminescent signal was measured using a Tecan Infinite M1000 multimode microplate reader (Tecan, Morrisville, NC). The half maximal inhibitory concentration (IC50) was calculated using the GraphPad Prism 5 software (GraphPad Software, La Jolla, CA). Cpd. […] The structure of Cpd.

MV4-11 cell line = test: as above; type: cell-based; conditions: Homo sapiens, 96 h, 4 days
Procedure: as §1

SMILES | IC50 (RS4; 11 cell line) [nM] | IC50 (MV4-11 cell line) [nM]
O=C1CCC(N2C(=O)c3cccc(NCCOCCOCCOCCOc4ccc(NC(=O)c5ccc(NC(=O)[C@@H]6NC7(CCCCC7)[C@@]7(C(=O)Nc8cc(Cl)ccc87)[C@H]6c6cccc(Cl)c6F)cc5)cc4)c3C2=O)C(=O)N1 (stereo partly drawn) [Cpd. No. 6, (3′R,4'S,5′R)-6″-chloro-4′-(3-chloro-2-fluorophenyl)-N-(4-((4-(2-(2-(2-(2-((2-(2,6-dioxopiperidin-3-yl)-1,3-dioxoisoindolin-4-yl)amino)ethoxy)ethoxy)ethoxy)ethoxy)phenyl)carbamoyl)phenyl)-2″-oxodispiro[cyclohexane-1,2′-pyrrolidine-3′,3″-indoline]-5′-carboxamide] | 38 | 37
O=C1CCC(N2C(=O)c3cccc(NCCNC(=O)c4ccc(NC(=O)[C@@H]5NC6(CCCCC6)[C@@]6(C(=O)Nc7cc(Cl)ccc76)[C@H]5c5cccc(Cl)c5F)cc4)c3C2=O)C(=O)N1 (stereo partly drawn) [Cpd. No. 7, (3′R,4'S,5′R)-6″-chloro-4′-(3-chloro-2-fluorophenyl)-N-(4-((2-((2-(2,6-dioxopiperidin-3-yl)-1,3-dioxoisoindolin-4-yl)amino)ethyl)carbamoyl)phenyl)-2″-oxodispiro[cyclohexane-1,2′-pyrrolidine-3′,3″-indoline]-5′-carboxamide] | 15 | 20
O=C1CCC(N2C(=O)c3cccc(NCCCCNC(=O)c4ccc(NC(=O)[C@@H]5NC6(CCCCC6)[C@@]6(C(=O)Nc7cc(Cl)ccc76)[C@H]5c5cccc(Cl)c5F)cc4)c3C2=O)C(=O)N1 (stereo partly drawn) [Cpd. No. 9, (3′R,4'S,5′R)-6″-chloro-4′-(3-chloro-2-fluorophenyl)-N-(4-((4-((2-(2,6-dioxopiperidin-3-yl)-1,3-dioxoisoindolin-4-yl)amino)butyl)carbamoyl)phenyl)-2″-oxodispiro[cyclohexane-1,2′-pyrrolidine-3′,3″-indoline]-5′-carboxamide] | 10 | 163
O=C1CCC(N2C(=O)c3cccc(NCCCCCCNC(=O)c4ccc(NC(=O)[C@@H]5NC6(CCCCC6)[C@@]6(C(=O)Nc7cc(Cl)ccc76)[C@H]5c5cccc(Cl)c5F)cc4)c3C2=O)C(=O)N1 (stereo partly drawn) [Cpd. No. 11, (3′R,4'S,5′R)-6″-chloro-4′-(3-chloro-2-fluorophenyl)-N-(4-((6-((2-(2,6-dioxopiperidin-3-yl)-1,3-dioxoisoindolin-4-yl)amino)hexyl)carbamoyl)phenyl)-2″-oxodispiro[cyclohexane-1,2′-pyrrolidine-3′,3″-indoline]-5′-carboxamide] | 30 | 42
O=C1CCC(N2C(=O)c3cccc(NCCOCCNC(=O)c4ccc(NC(=O)[C@@H]5NC6(CCCCC6)[C@@]6(C(=O)Nc7cc(Cl)ccc76)[C@H]5c5cccc(Cl)c5F)cc4)c3C2=O)C(=O)N1 (stereo partly drawn) [Cpd. No. 13, (3′R,4'S,5′R)-6″-chloro-4′-(3-chloro-2-fluorophenyl)-N-(4-((2-(2-((2-(2,6-dioxopiperidin-3-yl)-1,3-dioxoisoindolin-4-yl)amino)ethoxy)ethyl)carbamoyl)phenyl)-2″-oxodispiro[cyclohexane-1,2′-pyrrolidine-3′,3″-indoline]-5′-carboxamide] | 7.4 | 5.2
O=C1CCC(N2C(=O)c3cccc(NCCOCCOCCOCCOCCOCCOCCOCCNC(=O)c4ccc(NC(=O)[C@@H]5NC6(CCCCC6)[C@@]6(C(=O)Nc7cc(Cl)ccc76)[C@H]5c5cccc(Cl)c5F)cc4)c3C2=O)C(=O)N1 (stereo partly drawn) [Cpd. No. 16, (3′R,4'S,5′R)-6″-chloro-4′-(3-chloro-2-fluorophenyl)-N-(4-((23-((2-(2,6-dioxopiperidin-3-yl)-1,3-dioxoisoindolin-4-yl)amino)-3,6,9,12,15,18,21-heptaoxatricosyl)carbamoyl)phenyl)-2″-oxodispiro[cyclohexane-1,2′-pyrrolidine-3′,3″-indoline]-5′-carboxamide] | 4.7 | 2.7
O=C1CCC(N2C(=O)c3cccc(NCCCOCCCCOCCCNC(=O)c4ccc(NC(=O)[C@@H]5NC6(CCCCC6)[C@@]6(C(=O)Nc7cc(Cl)ccc76)[C@H]5c5cccc(Cl)c5F)cc4)c3C2=O)C(=O)N1 (stereo partly drawn) [Cpd. No. 17, (3′R,4'S,5′R)-6″-chloro-4′-(3-chloro-2-fluorophenyl)-N-(4-((3-(4-(3-((2-(2,6-dioxopiperidin-3-yl)-1,3-dioxoisoindolin-4-yl)amino)propoxy)butoxy)propyl)carbamoyl)phenyl)-2″-oxodispiro[cyclohexane-1,2′-pyrrolidine-3′,3″-indoline]-5′-carboxamide] | 19 | 21
O=C1CCC(N2C(=O)c3cccc(NCCCOCCOCCOCCCNC(=O)c4ccc(NC(=O)[C@@H]5NC6(CCCCC6)[C@@]6(C(=O)Nc7cc(Cl)ccc76)[C@H]5c5cccc(Cl)c5F)cc4)c3C2=O)C(=O)N1 (stereo partly drawn) [Cpd. No. 18, (3′R,4'S,5′R)-6″-chloro-4′-(3-chloro-2-fluorophenyl)-N-(4-((3-(2-(2-(3-((2-(2,6-dioxopiperidin-3-yl)-1,3-dioxoisoindolin-4-yl)amino)propoxy)ethoxy)ethoxy)propyl)carbamoyl)phenyl)-2″-oxodispiro[cyclohexane-1,2′-pyrrolidine-3′,3″-indoline]-5′-carboxamide] | 7.4 | 5.2
O=C1CCC(N2Cc3c(NCCOCCNC(=O)c4ccc(NC(=O)[C@@H]5NC6(CCCCC6)[C@@]6(C(=O)Nc7cc(Cl)ccc76)[C@H]5c5cccc(Cl)c5F)cc4)cccc3C2=O)C(=O)N1 (stereo partly drawn) [Cpd. No. 20, (3′R,4'S,5′R)-6″-chloro-4′-(3-chloro-2-fluorophenyl)-N-(4-((2-(2-((2-(2,6-dioxopiperidin-3-yl)-1-oxoisoindolin-4-yl)amino)ethoxy)ethyl)carbamoyl)phenyl)-2″-oxodispiro[cyclohexane-1,2′-pyrrolidine-3′,3″-indoline]-5′-carboxamide] | 8.5 | 7.6
O=C1CCC(N2Cc3c(NCCOCCOCCOCCOCCNC(=O)c4ccc(NC(=O)[C@@H]5NC6(CCCCC6)[C@@]6(C(=O)Nc7cc(Cl)ccc76)[C@H]5c5cccc(Cl)c5F)cc4)cccc3C2=O)C(=O)N1 (stereo partly drawn) [Cpd. No. 23, (3′R,4'S,5′R)-6″-chloro-4′-(3-chloro-2-fluorophenyl)-N-(4-((14-((2-(2,6-dioxopiperidin-3-yl)-1-oxoisoindolin-4-yl)amino)-3,6,9,12-tetraoxatetradecyl)carbamoyl)phenyl)-2″-oxodispiro[cyclohexane-1,2′-pyrrolidine-3′,3″-indoline]-5′-carboxamide] | 19 | 21
O=C1CCC(N2C(=O)c3cccc(NCCOCCOCCNC(=O)c4ccc(NC(=O)[C@@H]5NC6(CCCCC6)[C@@]6(C(=O)Nc7cc(Cl)ccc76)[C@H]5c5cccc(Cl)c5F)nc4)c3C2=O)C(=O)N1 (stereo partly drawn) [Cpd. No. 24, (3′R,4'S,5′R)-6″-chloro-4′-(3-chloro-2-fluorophenyl)-N-(5-((2-(2-(2-((2-(2,6-dioxopiperidin-3-yl)-1,3-dioxoisoindolin-4-yl)amino)ethoxy)ethoxy)ethyl)carbamoyl)pyridin-2-yl)-2″-oxodispiro[cyclohexane-1,2′-pyrrolidine-3′,3″-indoline]-5′-carboxamide] | 7 | 5
